Measurements published in US20250154154A1 (Relay Binney Street, 2nd Floor, priority 2020, published 2025).

Legend:
[1] = tested on: phospho-S6RP (Ser 235/236) in RBE cells; test: Cellular Proliferation Protocol (cellular phospho-S6RP HTRF), RBE cells; assay type: cell-based; conditions: 6 hours treatment, RBE or SNU-1079 cells, cell line not given
In short: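 RBE cells, 2000/well, seeded 24 h before 6 h compound treatment at 37° C. Lysates were probed with a Eu-cryptate/d2 HTRF antibody sandwich for phospho-S6RP (Ser 235/236), incubated overnight at room temperature. Signal normalised to DMSO control and IC50 fitted to a 4-parameter curve.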

RBE cells = test: Cell Viability Protocol (CellTiterGlo), RBE cells; assay type: cell-based; conditions: RBE or SNU-1079 cells, 72 or 120 hour, cell line and time not given
In short: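 RBE cells plated at 1200/well in RPMI 1640 with 10% FBS, incubated 24 h, then dosed with compound from DMSO stocks and incubated 72 or 120 h at 37° C. CellTiterGlo luminescence normalised to DMSO control; IC50 from 4-parameter fit.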

SRC = SRC (Homo sapiens, UniProt P12931); test: SRC Biochemical Assay Protocol (microfluidic mobility shift assay, FLPeptide4 substrate)
In short: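 Recombinant SRC (0.26 nM) preincubated 30 min at RT with compound (0.0017–100 μM) and 1.5 μM FLPeptide4, then 50 μM ATP added; 90 min reaction in HEPES pH 7.4, 10 mM MgCl2, 1% DMSO, EDTA-quenched. Phosphopeptide quantified by microfluidic mobility shift; IC50 from 4-parameter logistic fit.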

Sequence of SRC (P12931 whole entry, species assumed): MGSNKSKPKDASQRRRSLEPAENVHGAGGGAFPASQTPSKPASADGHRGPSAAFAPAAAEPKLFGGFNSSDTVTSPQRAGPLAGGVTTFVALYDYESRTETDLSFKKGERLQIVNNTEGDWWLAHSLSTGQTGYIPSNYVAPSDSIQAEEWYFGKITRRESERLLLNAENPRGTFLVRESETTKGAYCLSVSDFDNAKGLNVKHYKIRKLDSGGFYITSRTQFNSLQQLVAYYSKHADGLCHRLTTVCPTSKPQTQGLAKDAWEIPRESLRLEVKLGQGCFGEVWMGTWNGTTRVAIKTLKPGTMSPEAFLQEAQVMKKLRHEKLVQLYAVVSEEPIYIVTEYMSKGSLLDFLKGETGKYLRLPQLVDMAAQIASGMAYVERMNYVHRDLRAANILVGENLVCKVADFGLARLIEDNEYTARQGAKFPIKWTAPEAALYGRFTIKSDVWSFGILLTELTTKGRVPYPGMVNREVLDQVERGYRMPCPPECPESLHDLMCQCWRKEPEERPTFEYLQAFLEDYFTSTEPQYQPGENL

SMILES | IC50 (SRC) | IC50 ([1]; 6 h) | IC50 (RBE cells) | IC50 [1]
C=CC(=O)N1CCC(N2CC(C#Cc3c(-c4ccc(Cl)c(OC)n4)c4c(N)ncnc4n3C)C2)CC1 [II-324] | 10 to 1000 nM |  | 10 to 1000 nM | 10 to 1000 nM
C=CC(=O)N1CC[C@@H](N2CC(C#Cc3c(-c4cccc5c4cnn5C)c4c(N)ncnc4n3C)C2)[C@@H](O)C1 [II-63, 1-((3S,4R)-4-(3-((4-amino-7-methyl-5-(1-methyl-1H-indazol-4-yl)-7H-pyrrolo[2,3-d]pyrimidin-6-yl)ethynyl)azetidin-1-yl)-3-hydroxypiperidin-1-yl)prop-2-en-1-one] | 1000 to 10000 nM | 1000 to 10000 nM | 1000 to 10000 nM | 
C=CC(=O)N1CC[C@H](N2CC(C#Cc3c(-c4cccc(Cl)c4OC)c4c(N)ncnc4n3C)C2)[C@H](O)C1 [II-266] | 10 to 1000 nM | 1000 to 10000 nM | 1000 to 10000 nM | 
C=CC(=O)N1CC[C@H](N2CC(C#Cc3c(-c4ccc(F)c5c4OCO5)c4c(N)ncnc4n3C(C)C)C2)[C@H](F)C1 [II-286, 1-((3R,4S)-4-(3-((4-amino-5-(7-fluorobenzo[d][1,3]dioxol-4-yl)-7-isopropyl-7H-pyrrolo[2,3-d]pyrimidin-6-yl)ethynyl)azetidin-1-yl)-3-fluoropiperidin-1-yl)prop-2-en-1-one] | ≤ 10 nM | ≤ 10 nM | 10 to 1000 nM | 
C=CC(=O)N1CC[C@@H](N2CC(C#Cc3c(-c4cc(OC)c(Cl)c(OC)c4)c4c(N)ncnc4n3C)C2)[C@@H](O)C1 [II-60] | 10 to 1000 nM |  | 10 to 1000 nM | 10 to 1000 nM
C=CC(=O)N1CC[C@H](N2CC(C#Cc3c(-c4ccc(Cl)c(C)n4)c4c(N)ncnc4n3C(C)C)C2)[C@H](F)C1 [II-328] | 10 to 1000 nM |  | 10 to 1000 nM | 10 to 1000 nM
C=CC(=O)N1C[C@@H]2[C@@H](C#Cc3c(-c4c(Cl)ccc5c4OCO5)c4c(N)ncnc4n3C)[C@@H]2C1 [II-38] | 10 to 1000 nM |  | 10 to 1000 nM | 10 to 1000 nM

Further lines, with some results ahead:

IC50 (SRC) | SMILES | IC50 ([1]; 6 h) | IC50 (RBE cells) | IC50 [1]
10 to 1000 nM | C=CC(=O)N1CCC(C#Cc2c(-c3ccc(Oc4ccccc4)cc3)c3c(N)ncnc3n2CCN2CCN(C)CC2)CC1 [Example I-52] | 10 to 1000 nM | 10 to 1000 nM | 
10 to 1000 nM | C=CC(=O)N1CC[C@H](N2CC(C#Cc3c(-c4ccc(Oc5ccccc5)cc4)c4c(N)ncnc4n3C)C2)[C@H](F)C1 [II-170, 1-((3R,4S)-4-(3-((4-amino-7-methyl-5-(4-phenoxyphenyl)-7H-pyrrolo[2,3-d]pyrimidin-6-yl)ethynyl)azetidin-1-yl)-3-fluoropiperidin-1-yl)prop-2-en-1-one] | ≤ 10 nM | ≤ 10 nM | 
10 to 1000 nM | CN(C)CCC(=O)N1CCC(C#Cc2c(-c3ccc(Oc4ccccc4)cc3)c3c(N)ncnc3n2C)CC1 [II-188] | 10 to 1000 nM | 10 to 1000 nM | 
10 to 1000 nM | Cn1c(C#CC2CCCN(C(=O)/C=C/CN3CCOCC3)CC2)c(-c2ccc(Oc3ccccc3)cc2)c2c(N)ncnc21 (stereo not drawn) [II-181, (E)-1-(4-((4-amino-7-methyl-5-(4-phenoxyphenyl)-7H-pyrrolo[2,3-d]pyrimidin-6-yl)ethynyl)azepan-1-yl)-4-morpholinobut-2-en-1-one] | 1000 to 10000 nM | 1000 to 10000 nM | 
1000 to 10000 nM | C=CC(=O)N1CCC(N2CC(C#Cc3c(-c4cccc5c4cnn5C)c4c(N)ncnc4n3C)C2)CC1 [II-93] |  | 1000 to 10000 nM | 1000 to 10000 nM
10 to 1000 nM | C=CC(=O)N1CCC(N2CC(F)(C#Cc3c(-c4ccc(Oc5ccccc5)cc4)c4c(N)ncnc4n3C)C2)CC1 [II-176, 1-(4-(3-((4-amino-7-methyl-5-(4-phenoxyphenyl)-7H-pyrrolo[2,3-d]pyrimidin-6-yl)ethynyl)-3-fluoroazetidin-1-yl)piperidin-1-yl)prop-2-en-1-one] | ≤ 10 nM | ≤ 10 nM | 
≤ 10 nM | C=CC(=O)N1CCC(N2CC(C#Cc3c(-c4cccc5c4OCO5)c4c(N)ncnc4n3CC)C2)CC1 [II-119] |  | 10 to 1000 nM | 10 to 1000 nM
10 to 1000 nM | C=CC(=O)N1CCC(N2CC(C#Cc3c(-c4ccc(C5CC5)cc4)c4c(N)ncnc4n3C)C2)CC1 [II-99] |  | 10 to 1000 nM | 10 to 1000 nM
